Test results published in patent EP0282292B1, “Improved chelator for anaerobic sealants” (LOCTITE (IRELAND) Ltd., priority 1987, dated 1988).
Read-outs that look alike come from different tables or passages of the source.

Legend:
[1] = Stability at 82°C (time to first gellation) of curable formulation spiked with copper; settings: for level of chelator able to counteract added copper: 0.5 ppm of added copper; for stability (time to first gellation): 82°C, spiked with copper after one week at room temperature, supernatant only
[2] = anaerobic sealant formulation with acidic components

SMILES | level of chelator able to counteract added copper [1] | stability (time to first gellation) [1] | chelator concentration, Sampled after 0.5hr. standing-supernatant liquid taken (1% Maleic Acid in PEGMA) | chelator concentration, Stirred 0.5hr. mixture sampled (1% Maleic Acid in PEGMA) | chelator concentration, supernatant after 4 days standing (1% Maleic Acid in PEGMA) | chelator concentration, supernatant after 5 days standing (1% Maleic Acid in PEGMA) | chelator concentration, Sampled after 0.5hr. standing-supernatant liquid taken (3% Saccharin in PEGMA) | chelator concentration, Stirred 0.5hr. mixture sampled (3% Saccharin in PEGMA) | chelator concentration, supernatant after 4 days standing (3% Saccharin in PEGMA) | chelator concentration, supernatant after 5 days standing (3% Saccharin in PEGMA) | time to precipitation from solution after addition [2]
O=C([O-])CN(CCO)CCN(CC(=O)[O-])CC(=O)[O-].[Na+].[Na+].[Na+] [HEDTA Na₃, N-hydroxyethylenediaminetriacetic acid trisodium salt] | 300 ppm | no loss of chelation efficiency on aging | 110 ppm | 826 ppm | 175 ppm | 180 ppm | 65 ppm | 904 ppm | 69 ppm | 75 ppm | 
O=C([O-])CN(CCN(CC(=O)[O-])CC(=O)[O-])CC(=O)[O-].[Na+].[Na+].[Na+].[Na+] [EDTA Na₄, ethylenediaminetetraacetic acid tetrasodium salt] |  |  |  |  |  |  |  |  |  |  | ≤ 24 h
CC(O)CN(CCN(CC(C)O)CC(C)O)CC(C)O (stereo not shown) [EDTPA, tetrakis-(2-hydroxy-propyl)-ethylenediamine] | 300 ppm | no loss of chelation efficiency on aging |  |  |  |  |  |  |  |  | 
